ChEMBL document CHEMBL3875196, “Novel pyrazolo[1,5-a]pyridines with improved aqueous solubility as p110α-selective PI3 kinase inhibitors” (Bioorg Med Chem Lett, 2017)

Assays:
[1] = Inhibition of recombinant mouse p110alpha/N-terminal His-tagged human p85alpha expressed in baculovirus infected Sf21 cells using L-alpha-phosphatidylinositol as substrate after 1 hr in presence of [gamma33]-ATP by thin layer chromatographic analysis
[2] = molecular target: PI3K p110 beta/p85 alpha (Homo sapiens, UniProt P42338); test: Inhibition of recombinant human p110beta/N-terminal His-tagged human p85alpha expressed in baculovirus infected sf cells using L-alpha-phosphatidylinositol as substrate after 1 hr in presence of [gamma33]-ATP by thin layer chromatographic analysis
Chain of PI3K p110 beta/p85 alpha (P27986 whole entry, canonical isoform): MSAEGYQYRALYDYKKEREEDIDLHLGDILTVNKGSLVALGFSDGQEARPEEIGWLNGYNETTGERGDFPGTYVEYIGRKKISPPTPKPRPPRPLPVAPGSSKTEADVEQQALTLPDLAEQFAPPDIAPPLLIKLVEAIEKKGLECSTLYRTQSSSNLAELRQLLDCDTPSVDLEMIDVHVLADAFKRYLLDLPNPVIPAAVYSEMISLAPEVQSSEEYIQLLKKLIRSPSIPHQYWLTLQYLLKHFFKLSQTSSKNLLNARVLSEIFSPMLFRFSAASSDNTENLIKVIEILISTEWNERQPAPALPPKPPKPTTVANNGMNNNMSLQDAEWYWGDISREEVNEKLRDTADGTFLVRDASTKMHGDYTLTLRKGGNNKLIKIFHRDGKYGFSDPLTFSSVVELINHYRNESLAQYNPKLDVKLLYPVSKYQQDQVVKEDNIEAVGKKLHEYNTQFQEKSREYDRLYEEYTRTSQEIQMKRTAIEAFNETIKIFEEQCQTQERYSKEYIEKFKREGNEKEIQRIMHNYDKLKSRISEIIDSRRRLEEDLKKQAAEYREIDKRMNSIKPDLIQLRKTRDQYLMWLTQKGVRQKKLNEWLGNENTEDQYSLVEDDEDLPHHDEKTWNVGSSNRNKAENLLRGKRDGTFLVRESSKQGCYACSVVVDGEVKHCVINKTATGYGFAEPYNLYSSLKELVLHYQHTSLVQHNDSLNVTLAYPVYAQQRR
Chain of PI3K p110 beta/p85 alpha (P42338 whole entry, canonical isoform): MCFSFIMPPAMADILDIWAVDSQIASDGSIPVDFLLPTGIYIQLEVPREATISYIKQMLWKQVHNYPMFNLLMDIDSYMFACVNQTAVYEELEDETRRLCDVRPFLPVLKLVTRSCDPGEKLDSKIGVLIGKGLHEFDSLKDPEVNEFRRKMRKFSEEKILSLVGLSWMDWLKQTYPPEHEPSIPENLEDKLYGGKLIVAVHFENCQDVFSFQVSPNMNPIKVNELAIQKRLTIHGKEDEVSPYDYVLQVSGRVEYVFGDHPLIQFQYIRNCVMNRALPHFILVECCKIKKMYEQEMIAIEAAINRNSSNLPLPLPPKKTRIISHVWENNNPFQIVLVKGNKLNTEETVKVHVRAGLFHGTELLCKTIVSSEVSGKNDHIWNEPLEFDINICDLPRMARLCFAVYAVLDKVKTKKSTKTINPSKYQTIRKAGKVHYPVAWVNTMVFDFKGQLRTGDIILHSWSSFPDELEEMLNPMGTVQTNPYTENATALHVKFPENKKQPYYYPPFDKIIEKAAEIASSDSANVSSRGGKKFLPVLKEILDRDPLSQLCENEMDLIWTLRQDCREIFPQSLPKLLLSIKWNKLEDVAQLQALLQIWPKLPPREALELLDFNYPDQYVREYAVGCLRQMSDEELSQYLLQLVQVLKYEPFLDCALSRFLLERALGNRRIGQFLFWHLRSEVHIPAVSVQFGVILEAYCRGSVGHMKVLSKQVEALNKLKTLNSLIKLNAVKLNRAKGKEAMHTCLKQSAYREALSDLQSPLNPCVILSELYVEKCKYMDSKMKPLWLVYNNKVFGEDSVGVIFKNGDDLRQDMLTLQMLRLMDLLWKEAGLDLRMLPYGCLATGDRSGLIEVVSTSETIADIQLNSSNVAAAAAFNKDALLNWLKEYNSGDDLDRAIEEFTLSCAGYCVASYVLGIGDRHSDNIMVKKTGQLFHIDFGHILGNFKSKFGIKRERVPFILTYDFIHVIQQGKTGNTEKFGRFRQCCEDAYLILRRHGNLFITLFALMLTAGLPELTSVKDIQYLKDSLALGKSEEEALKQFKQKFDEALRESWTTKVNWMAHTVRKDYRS

[3] = molecular target: T1, Phosphatidylinositol 4,5-bisphosphate 3-kinase catalytic subunit delta isoform (Homo sapiens, UniProt O00329); test: Inhibition of p110delta (unknown origin) using L-alpha phosphatidylinositol as substrate after 1 hr in presence of [gamma33]-ATP by thin layer chromatographic analysis
T1 sequence (O00329 whole entry): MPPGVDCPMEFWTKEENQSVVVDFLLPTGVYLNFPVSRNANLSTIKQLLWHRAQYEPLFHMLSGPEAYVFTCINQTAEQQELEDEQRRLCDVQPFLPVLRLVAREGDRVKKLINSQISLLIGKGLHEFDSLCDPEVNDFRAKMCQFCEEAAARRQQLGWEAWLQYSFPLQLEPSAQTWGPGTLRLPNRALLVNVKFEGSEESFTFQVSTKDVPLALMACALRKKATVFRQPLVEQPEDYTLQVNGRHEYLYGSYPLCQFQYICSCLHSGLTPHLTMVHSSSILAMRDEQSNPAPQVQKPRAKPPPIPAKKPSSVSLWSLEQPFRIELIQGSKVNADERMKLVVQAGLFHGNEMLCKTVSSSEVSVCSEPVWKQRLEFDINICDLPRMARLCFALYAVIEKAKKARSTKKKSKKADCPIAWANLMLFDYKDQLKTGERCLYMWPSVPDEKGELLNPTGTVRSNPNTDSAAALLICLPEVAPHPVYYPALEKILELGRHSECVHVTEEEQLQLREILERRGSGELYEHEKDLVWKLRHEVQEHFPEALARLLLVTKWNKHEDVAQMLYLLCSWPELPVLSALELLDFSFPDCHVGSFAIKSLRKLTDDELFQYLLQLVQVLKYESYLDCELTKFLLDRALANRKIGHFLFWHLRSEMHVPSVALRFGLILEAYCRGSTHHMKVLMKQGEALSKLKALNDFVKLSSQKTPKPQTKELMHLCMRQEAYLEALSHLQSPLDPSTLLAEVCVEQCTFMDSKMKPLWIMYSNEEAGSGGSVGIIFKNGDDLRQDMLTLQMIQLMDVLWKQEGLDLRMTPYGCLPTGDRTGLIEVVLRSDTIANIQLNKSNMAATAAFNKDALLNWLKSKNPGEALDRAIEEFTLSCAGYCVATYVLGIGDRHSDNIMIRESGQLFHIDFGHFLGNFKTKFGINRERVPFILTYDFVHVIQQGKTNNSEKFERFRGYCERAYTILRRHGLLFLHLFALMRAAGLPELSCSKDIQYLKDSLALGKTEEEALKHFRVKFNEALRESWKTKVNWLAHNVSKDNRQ

[4] = Antiproliferative activity against wild type p110alpha expressing human NZB5 cells after 5 days by [3H]-thymidine incorporation assay; format: functional, cell-based
[5] = Antiproliferative activity against wild type p110alpha expressing human NZOV9 cells after 5 days by [3H]-thymidine incorporation assay; format: functional, cell-based

SMILES | IC50 [1] [nM] | IC50 [2] [nM] | IC50 [3] [nM] | IC50 [4] [nM] | IC50 [5] [nM]
C/C(=N\NS(=O)(=O)c1cc([N+](=O)[O-])ccc1N(C)CCCN1CCOCC1)c1cnn2ccc(Br)cc12 | 448 | – | – | 900 | 3200
CNCCN(C)c1ccc([N+](=O)[O-])cc1S(=O)(=O)N(C)/N=C/c1cnn2ccc(C#N)cc12 | 65 | 1000 | 280 | 24 | 11
CN(CCN)c1ccc([N+](=O)[O-])cc1S(=O)(=O)N(C)/N=C/c1cnn2ccc(C#N)cc12 | 50 | > 1000 | 470 | 29 | 57
CN(CCN1CCCCC1)c1ccc([N+](=O)[O-])cc1S(=O)(=O)N(C)/N=C/c1cnn2ccc(C#N)cc12 | 79 | 4200 | 450 | 92 | 49
CN(C)CCN(C)c1ccc([N+](=O)[O-])cc1S(=O)(=O)N(C)/N=C/c1cnn2ccc(Br)cc12 | 510 | – | – | < 2 | < 2
CN(/N=C/c1cnn2ccc(Br)cc12)S(=O)(=O)c1cc([N+](=O)[O-])ccc1OCCN1CCOCC1 | 51 | 2900 | 350 | 270 | 550
C/C(=N\N(C)S(=O)(=O)c1cc([N+](=O)[O-])ccc1N(C)CCCN1CCOCC1)c1cnn2ccc(C#N)cc12 | > 1000 | – | – | 3300 | 2400
CN(C)CCNc1ccc([N+](=O)[O-])cc1S(=O)(=O)N(C)/N=C/c1cnn2ccc(C#N)cc12 | 430 | > 1000 | > 1000 | 750 | 640
CN(C)CCN(C)c1ccc([N+](=O)[O-])cc1C(=O)N(C)/N=C/c1cnn2ccc(C#N)cc12 | 580 | 230 | 68 | 5600 | 3100
C/C(=N\NS(=O)(=O)c1cc([N+](=O)[O-])ccc1N(C)CCCN1CCOCC1)c1cnn2ccc(C#N)cc12 | 333 | – | – | 2400 | 9500
C/C(=N\NS(=O)(=O)c1cc([N+](=O)[O-])ccc1N(C)CCN(C)C)c1cnn2ccc(Br)cc12 | 208 | > 1000 | > 1000 | 420 | 420
C/C(=N\N(C)S(=O)(=O)c1cc([N+](=O)[O-])ccc1N(C)CCCN1CCOCC1)c1cnn2ccc(Br)cc12 | > 1000 | – | – | 5100 | 3800
C/C(=N\N(C)S(=O)(=O)c1cc([N+](=O)[O-])ccc1N(C)CCN(C)C)c1cnn2ccc(Br)cc12 | > 1000 | – | > 1000 | 3500 | 930
CN(CCCN1CCOCC1)c1ccc(C#N)cc1S(=O)(=O)N(C)/N=C/c1cnn2ccc(C#N)cc12 | 240 | > 1000 | 370 | 21 | 360
CN(/N=C/c1cnn2ccc(C#N)cc12)S(=O)(=O)c1cc(C#N)ccc1OCCN1CCOCC1 | 360 | > 1000 | 680 | 400 | 390
C/C(=N\NS(=O)(=O)c1cc([N+](=O)[O-])ccc1N(C)CCN(C)C)c1cnn2ccc(C#N)cc12 | 51 | 900 | 676 | 460 | 2000
C/C(=N\N(C)S(=O)(=O)c1cc([N+](=O)[O-])ccc1N(C)CCN(C)C)c1cnn2ccc(C#N)cc12 | 328 | > 1000 | 658 | 1800 | 860
CN(C)CCN(C)c1ccc(C#N)cc1S(=O)(=O)N(C)/N=C/c1cnn2ccc(C#N)cc12 | 81 | 2000 | 380 | 55 | 47
CN(C)CCOc1ccc([N+](=O)[O-])cc1S(=O)(=O)N(C)/N=C/c1cnn2ccc(C#N)cc12 | 75 | > 1000 | > 1000 | 100 | 170
CN(C)CCN(C)c1ccc(C#N)cc1C(=O)N(C)/N=C/c1cnn2ccc(C#N)cc12 | 630 | – | – | 2900 | 6200
C/C(=N\N(C)S(=O)(=O)c1cc([N+](=O)[O-])ccc1N(C)Cc1ccccn1)c1cnn2ccc(Br)cc12 | 1040 | – | – | 2600 | 3000
CN(CCCN1CCOCC1)c1ccc([N+](=O)[O-])cc1S(=O)(=O)N(C)/N=C/c1cnn2ccc(Br)cc12 | 370 | – | – | 94 | 670
CN(Cc1ccccn1)c1ccc([N+](=O)[O-])cc1S(=O)(=O)N(C)/N=C/c1cnn2ccc(Br)cc12 | 180 | > 1000 | – | 93 | 580

Now those with a lower IC50 [1], led by results:

IC50 [1] [nM] | IC50 [2] [nM] | IC50 [3] [nM] | SMILES | IC50 [4] [nM] | IC50 [5] [nM]
6 | 5600 | 950 | CN(/N=C/c1cnn2ccc(C#N)cc12)S(=O)(=O)c1cc([N+](=O)[O-])ccc1OCc1ccccn1 | 1300 | 660
46 | 670 | 230 | CN(C)CCN(C)c1ccc([N+](=O)[O-])cc1S(=O)(=O)N(C)/N=C/c1cnn2ccc(C#N)cc12 | 49 | 55
21 | 220 | 94 | CN(/N=C/c1cnn2ccc(C#N)cc12)S(=O)(=O)c1cc([N+](=O)[O-])ccc1OCCN1CCOCC1 | 440 | 410
9 | > 1000 | 27 | CN(/N=C/c1cnn2ccc(C#N)cc12)S(=O)(=O)c1cc([N+](=O)[O-])ccc1NCCN1CCOCC1 | 9400 | > 20000
9 | 410 | 60 | CN(CCc1ccccn1)c1ccc([N+](=O)[O-])cc1S(=O)(=O)N(C)/N=C/c1cnn2ccc(C#N)cc12 | 5 | 410
17 | 160 | 61 | CN(CCc1ccncc1)c1ccc([N+](=O)[O-])cc1S(=O)(=O)N(C)/N=C/c1cnn2ccc(C#N)cc12 | < 2 | 250
9 | 180 | 55 | CN(CCc1cccnc1)c1ccc([N+](=O)[O-])cc1S(=O)(=O)N(C)/N=C/c1cnn2ccc(C#N)cc12 | < 2 | 740
25 | > 1000 | 350 | CN(/N=C/c1cnn2ccc(C#N)cc12)S(=O)(=O)c1cc([N+](=O)[O-])ccc1NCc1ccccn1 | 1100 | 680
5.8 | 530 | 160 | CN(Cc1cccnc1)c1ccc([N+](=O)[O-])cc1S(=O)(=O)N(C)/N=C/c1cnn2ccc(C#N)cc12 | 540 | 630
26 | 510 | 170 | CN(CCCN1CCOCC1)c1ccc([N+](=O)[O-])cc1S(=O)(=O)N(C)/N=C/c1cnn2ccc(C#N)cc12 | 71 | 560
19 | 1000 | 74 | CN(CCN1CCOCC1)c1ccc([N+](=O)[O-])cc1S(=O)(=O)N(C)/N=C/c1cnn2ccc(C#N)cc12 | 260 | 210
10 | 450 | 130 | CN(Cc1ccccn1)c1ccc([N+](=O)[O-])cc1S(=O)(=O)N(C)/N=C/c1cnn2ccc(C#N)cc12 | 90 | 330
1.3 | – | – | Cc1ccc([N+](=O)[O-])cc1S(=O)(=O)N(CCO)/N=C/c1cnn2ccc(C#N)cc12 | – | 140
4.8 | 207 | 11 | C/C(=N\NS(=O)(=O)c1cc([N+](=O)[O-])ccc1N(C)Cc1ccccn1)c1cnn2ccc(C#N)cc12 | 97 | 3200
40 | – | – | CN(Cc1ccccn1)c1ccc(C#N)cc1S(=O)(=O)N(C)/N=C/c1cnn2ccc(C#N)cc12 | 130 | 960
